Reference: US11834454B2, “Alkynylphenylbenzamide compounds and applications thereof” (SHENZHEN NEWDEL BIOTECH CO., LTD., priority 2021, dated 2023)
pIC50: −log10 of the molar value.

What was measured:
TRKC = target: T1, TRKC (Homo sapiens, UniProt Q16288); test: Z'-LYTE kinase activity detection, TRKC; format: biochemical
T1 construct: purchased American Life Technologies PV3617

BaF3-CD74-NTRK1-G595R = target: T2, BaF3-CD74-NTRK1-G595R (Homo sapiens, UniProt P04629, G595R); test: Drug-resistant cell proliferation inhibition (CCK-8); format: cell-based, mouse; settings: 72 hours, read-out: drug-resistant cell viability IC50
T2 construct: constructed pCDNA3.1(+) plasmid vector carrying genes such as; fused on or other part: P04233 (HLA class II histocompatibility antigen gamma chain)
T2 sequence (P04629 510-796 G595R limits assumed): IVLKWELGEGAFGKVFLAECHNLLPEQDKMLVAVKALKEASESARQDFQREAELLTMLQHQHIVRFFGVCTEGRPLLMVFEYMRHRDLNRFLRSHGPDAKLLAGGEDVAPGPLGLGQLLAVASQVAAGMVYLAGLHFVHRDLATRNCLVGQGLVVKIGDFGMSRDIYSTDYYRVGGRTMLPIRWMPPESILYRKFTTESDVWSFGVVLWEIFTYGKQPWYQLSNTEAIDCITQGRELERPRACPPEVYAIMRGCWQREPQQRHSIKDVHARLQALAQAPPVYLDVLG
Text: (§1) BaF3 cells (mouse pre-B cells) used in this experiment were purchased from Japan Cell Bank, all of the monoclonal stable strains, BaF3-CD74-NTRK1-G667C, BaF3-CD74-NTRK1-F589L, BaF3-CD74-NTRK1-G595R, BaF3-CD74-NTRK1-G667A, BaF3-CD74-NTRK1-V573M, BaF3-ETV6-NTRK2-G639R, BaF3-ETV6-NTRK2-G709C, BaF3-ETV6-NTRK2-V617M, BaF3-ETV6-NTRK2-F633L, BaF3-ETV6-NTRK3-G696C, BaF3-ETV6-NTRK3-G696A, BaF3-ETV6-NTRK3-G623R, BaF3-ETV6-NTRK3-G623E, BaF3-ETV6-NTRK3-F617L and BaF3-ETV6-NTRK3-V601M were constructed by our laboratory, and were identified by experiments such as positive control, protein expression and gene sequencing.
(§2) The brief steps for stable strains construction were as follows: constructed pCDNA3.1(+) plasmid vector carrying genes such as BaF3-CD74-NTRK1-G667C, BaF3-CD74-NTRK1-F589L, BaF3-CD74-NTRK1-G595R, BaF3-CD74-NTRK1-G667A, BaF3-CD74-NTRK1-V573M, BaF3-ETV6-NTRK2-G639R, BaF3-ETV6-NTRK2-G709C, BaF3-ETV6-NTRK2-V617M, BaF3-ETV6-NTRK2-F633L, BaF3-ETV6-NTRK3-G696C, BaF3-ETV6-NTRK3-G696A, BaF3-ETV6-NTRK3-G623R, BaF3-ETV6-NTRK3-G623E, BaF3-ETV6-NTRK3-F617L and BaF3-ETV6-NTRK3-V601M; the plasmid was electroporated into Ba/F3 cells using Amaxa® Cell Line Nucleofector® Kit V; 48 hours after of electroporation, geneticin (G418) with a final concentration of 1000 μg/mL was added to screen for two weeks, and the interleukin 3 (IL3) was removed to continue screening to obtain polyclonal stable strains; and then single clones were selected by limiting dilution method; the stable strains were then identified by the positive drugs, Western Blot (WB), and gene sequencing; the correct monoclonal through identification can be used to study the cell proliferation inhibitory activity of the inhibitors.
(§3) Cell proliferation inhibitory activity study: The cells in logarithmic growth phase were seeded into 96-well plates at 8000-12000 cells/well, and the inhibitors at different concentrations of (0-10 μM) were added the next day, and the culture was continued for 72 hours; then 10 μL of Cell Counting Kit-8 Cell Counting Reagent (CCK-8 Reagent) was added to each well, and continued to incubate for 1-3 hours; then its absorbance at 450 nm and 650 nm were measured with a super microplate reader. The median inhibitory concentration (IC50) was calculated using medical graphing software (GraphPad Prism 8.0.0).

BaF3-CD74-NTRK1-G667A = target: T3, BaF3-CD74-NTRK1-G667A (Homo sapiens, UniProt P04629, G667A); test: as above; format: cell-based, mouse; settings: 72 hours, read-out: drug-resistant cell viability IC50
T3 construct: constructed pCDNA3.1(+) plasmid vector carrying genes such as; fused on or other part: P04233 (HLA class II histocompatibility antigen gamma chain)
T3 sequence (P04629 510-796 G667A limits assumed): as the sequence (P04629 510-796 G595R limits assumed) above, with R86G, G158A counted along it
Text: as §1, §2, §3

BaF3-CD74-NTRK1-V573M = target: T4, BaF3-CD74-NTRK1-V573M (Homo sapiens, UniProt P04629, V573M); test: as above; format: cell-based, mouse; settings: 72 hours, read-out: drug-resistant cell viability IC50
T4 construct: constructed pCDNA3.1(+) plasmid vector carrying genes such as BaF3-CD74-NTRK1-G667C; fused on or other part: P04233 (HLA class II histocompatibility antigen gamma chain)
T4 sequence (P04629 510-796 V573M limits assumed): as the sequence (P04629 510-796 G595R limits assumed) above, with V64M, R86G counted along it
Text: as §1, §2, §3

BaF3-ETV6-NTRK3-G696C = target: T5, BaF3-ETV6-NTRK3-G696C (Homo sapiens, UniProt Q16288, G696C); test: as above; format: cell-based, mouse; settings: 72 hours, read-out: drug-resistant cell viability IC50
T5 construct: constructed pCDNA3.1(+) plasmid vector carrying genes such as; fused on or other part: P41212 (Transcription factor ETV6)
T5 sequence (Q16288 whole entry G696C, the tested form may be a part): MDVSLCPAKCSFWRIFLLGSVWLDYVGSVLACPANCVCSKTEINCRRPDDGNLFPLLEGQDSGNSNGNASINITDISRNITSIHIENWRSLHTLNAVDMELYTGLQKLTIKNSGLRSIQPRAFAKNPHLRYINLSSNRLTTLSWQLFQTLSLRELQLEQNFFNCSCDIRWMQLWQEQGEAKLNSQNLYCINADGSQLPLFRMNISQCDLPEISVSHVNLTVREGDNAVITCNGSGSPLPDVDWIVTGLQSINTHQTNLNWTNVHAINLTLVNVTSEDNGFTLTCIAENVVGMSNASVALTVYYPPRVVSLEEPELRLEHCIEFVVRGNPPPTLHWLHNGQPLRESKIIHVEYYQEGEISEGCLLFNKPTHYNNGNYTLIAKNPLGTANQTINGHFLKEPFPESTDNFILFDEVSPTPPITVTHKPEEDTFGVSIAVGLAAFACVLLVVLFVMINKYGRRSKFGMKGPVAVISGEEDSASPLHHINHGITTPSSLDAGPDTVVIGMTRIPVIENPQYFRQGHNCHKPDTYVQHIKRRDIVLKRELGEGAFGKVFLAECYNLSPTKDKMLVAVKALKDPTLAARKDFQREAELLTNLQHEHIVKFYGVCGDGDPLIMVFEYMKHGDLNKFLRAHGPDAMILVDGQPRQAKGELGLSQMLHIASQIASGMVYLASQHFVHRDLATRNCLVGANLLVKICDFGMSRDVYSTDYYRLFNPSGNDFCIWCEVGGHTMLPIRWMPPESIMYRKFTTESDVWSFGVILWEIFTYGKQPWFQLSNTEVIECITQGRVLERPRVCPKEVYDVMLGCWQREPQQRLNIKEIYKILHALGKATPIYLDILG
Text: as §1, §2, §3

BaF3-ETV6-NTRK3-V601M = target: T6, BaF3-ETV6-NTRK3-V601M (Homo sapiens, UniProt Q16288, V601M); test: as above; format: cell-based, mouse; settings: 72 hours, read-out: drug-resistant cell viability IC50
T6 construct: constructed pCDNA3.1(+) plasmid vector carrying genes such as; fused on or other part: P41212 (Transcription factor ETV6)
T6 sequence (Q16288 whole entry V601M, the tested form may be a part): as the sequence (Q16288 whole entry G696C, the tested form may be a part) above, with V601M, C696G counted along it
Text: as §1, §2, §3

[1] = Pharmacokinetic and oral bioavailability tests in SD rats; format: in vivo
Description: Pharmacokinetic and oral bioavailability tests were performed in SD rats. According to the drug's solubility, the drug was administered orally and intravenously as a single dose. Animal blood samples were collected at different time points (0, 0.5, 1, 2, 4, 6, 8, 24 hours), and added with heparin for anticoagulation, then centrifugated to obtain the supernatant. Blood samples were analyzed by HPLC-MS, and DAS2.1 was used for data analysis to detect half-life (T½), maximum blood concentration (Cmax), peak time (Tmax), area under the curve (AUC), and bioavailability (BA) and other pharmacokinetic data.

[2] = tested on: Ba/F3-CD74-TRKAG^667C allograft mouse model; test: In vivo antitumor efficacy, allograft mouse model; set-up: species or system CB17-SCID female mice; settings: for TGI: after treatment for 12 days
Description: After washed twice with normal saline, the cells were adjusted to a density of 1×10^7 cells/mL and placed on ice, and injected subcutaneously into the right axilla of CB17-SCID female mice (purchased from Viton Lever, Beijing, 6-8 weeks old) as soon as possible, with 200 μL each injection.
The control group was given the same volume of mixed solvent orally. Body weight and tumor volume were recorded every two days.

VEGFR2 = VEGFR2 (Homo sapiens, UniProt P35968); test: Kinase selectivity, Z'-LYTE
VEGFR2, sequence (P35968 20-1356, species assumed): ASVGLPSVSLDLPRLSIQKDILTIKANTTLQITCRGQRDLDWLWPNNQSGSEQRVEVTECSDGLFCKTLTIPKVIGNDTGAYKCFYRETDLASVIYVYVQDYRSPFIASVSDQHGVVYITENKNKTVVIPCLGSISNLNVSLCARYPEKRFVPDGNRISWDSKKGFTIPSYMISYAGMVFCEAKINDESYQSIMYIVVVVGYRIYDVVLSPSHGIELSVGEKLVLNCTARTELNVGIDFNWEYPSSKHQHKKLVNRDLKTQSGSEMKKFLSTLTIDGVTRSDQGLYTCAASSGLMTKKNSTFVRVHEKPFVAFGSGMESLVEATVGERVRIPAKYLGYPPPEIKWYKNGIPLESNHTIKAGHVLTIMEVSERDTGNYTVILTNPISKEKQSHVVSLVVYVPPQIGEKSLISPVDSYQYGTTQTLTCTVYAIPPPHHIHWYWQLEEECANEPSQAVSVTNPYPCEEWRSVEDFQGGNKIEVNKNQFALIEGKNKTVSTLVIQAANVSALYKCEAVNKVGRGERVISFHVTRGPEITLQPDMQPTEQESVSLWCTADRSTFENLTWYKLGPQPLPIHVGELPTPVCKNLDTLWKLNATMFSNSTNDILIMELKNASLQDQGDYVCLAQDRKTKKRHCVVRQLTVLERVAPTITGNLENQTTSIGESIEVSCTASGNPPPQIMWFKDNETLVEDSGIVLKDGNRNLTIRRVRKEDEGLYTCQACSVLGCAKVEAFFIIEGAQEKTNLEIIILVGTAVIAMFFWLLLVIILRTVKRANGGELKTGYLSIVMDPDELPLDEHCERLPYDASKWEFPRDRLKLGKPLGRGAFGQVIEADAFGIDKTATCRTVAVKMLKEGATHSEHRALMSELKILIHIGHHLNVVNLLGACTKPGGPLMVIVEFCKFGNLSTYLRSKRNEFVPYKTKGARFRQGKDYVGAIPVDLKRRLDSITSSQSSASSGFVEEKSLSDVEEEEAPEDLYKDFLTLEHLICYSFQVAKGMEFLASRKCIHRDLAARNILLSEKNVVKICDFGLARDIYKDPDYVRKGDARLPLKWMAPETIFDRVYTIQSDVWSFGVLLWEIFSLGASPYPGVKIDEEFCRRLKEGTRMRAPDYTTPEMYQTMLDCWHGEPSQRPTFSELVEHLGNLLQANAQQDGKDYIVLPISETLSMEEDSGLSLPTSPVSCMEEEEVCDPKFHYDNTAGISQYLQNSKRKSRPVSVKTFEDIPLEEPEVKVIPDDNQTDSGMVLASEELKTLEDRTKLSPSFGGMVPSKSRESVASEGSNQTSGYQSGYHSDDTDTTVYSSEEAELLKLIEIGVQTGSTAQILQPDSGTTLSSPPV
Description: Enzymatic reaction: In a 384-well plate, added 5 μL of enzyme-substrate system [50 mM 4-hydroxyethylpiperazineethanesulfonic acid (HEPES) pH 7.5, 0.01% BRIJ-35, 10 mM of magnesium chloride (MgCl2), 1 mM of ethylene glycol bis(2-aminoethyl ether)tetraacetic acid (EGTA), 2 μM of Tyr 01 peptide substrate], transferred 5 nL of compound (concentration gradient) using an Echo520 Ultra-Micro Liquid Pipetting System. […] Shaked and mixed, then centrifuged, and reacted at 30° C. in the dark for 1.5 hours.

BaF3-ETV6-NTRK2-F633L = target: T7, BaF3-ETV6-NTRK2-F633L (Homo sapiens, UniProt Q16620, F617L); test: Drug-resistant cell proliferation inhibition (CCK-8); format: cell-based, mouse; settings: 72 hours, read-out: drug-resistant cell viability IC50
T7 construct: constructed pCDNA3.1(+) plasmid vector carrying genes such as; fused on or other part: P41212 (Transcription factor ETV6)
T7 sequence (Q16620 538-822 F617L limits assumed): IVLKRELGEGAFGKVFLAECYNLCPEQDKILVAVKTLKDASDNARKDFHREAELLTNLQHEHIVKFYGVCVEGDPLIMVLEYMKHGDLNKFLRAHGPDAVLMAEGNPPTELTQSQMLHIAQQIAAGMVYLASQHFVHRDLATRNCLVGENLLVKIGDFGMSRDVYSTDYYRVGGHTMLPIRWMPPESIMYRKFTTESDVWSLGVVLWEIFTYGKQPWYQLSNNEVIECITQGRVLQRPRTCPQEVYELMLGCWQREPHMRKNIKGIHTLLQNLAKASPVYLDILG
Text: as §1, §2, §3

BaF3-ETV6-NTRK2-V617M = target: T8, BaF3-ETV6-NTRK2-V617M (Homo sapiens, UniProt Q16620, V601M); test: as above; format: cell-based, mouse; settings: 72 hours, read-out: drug-resistant cell viability IC50
T8 construct: constructed pCDNA3.1(+) plasmid vector carrying genes such as; fused on or other part: P41212 (Transcription factor ETV6)
T8 sequence (Q16620 538-822 V601M limits assumed): as the sequence (Q16620 538-822 F617L limits assumed) above, with V64M, L80F counted along it
Text: as §1, §2, §3

[3] = Sprague-Dawley (SD), rat, plasma, intravenous injection, 2.0 mg/kg
[4] = Sprague-Dawley (SD), rat, plasma, oral, 10.0 mg/kg

T1 sequence (Q16288 32-839): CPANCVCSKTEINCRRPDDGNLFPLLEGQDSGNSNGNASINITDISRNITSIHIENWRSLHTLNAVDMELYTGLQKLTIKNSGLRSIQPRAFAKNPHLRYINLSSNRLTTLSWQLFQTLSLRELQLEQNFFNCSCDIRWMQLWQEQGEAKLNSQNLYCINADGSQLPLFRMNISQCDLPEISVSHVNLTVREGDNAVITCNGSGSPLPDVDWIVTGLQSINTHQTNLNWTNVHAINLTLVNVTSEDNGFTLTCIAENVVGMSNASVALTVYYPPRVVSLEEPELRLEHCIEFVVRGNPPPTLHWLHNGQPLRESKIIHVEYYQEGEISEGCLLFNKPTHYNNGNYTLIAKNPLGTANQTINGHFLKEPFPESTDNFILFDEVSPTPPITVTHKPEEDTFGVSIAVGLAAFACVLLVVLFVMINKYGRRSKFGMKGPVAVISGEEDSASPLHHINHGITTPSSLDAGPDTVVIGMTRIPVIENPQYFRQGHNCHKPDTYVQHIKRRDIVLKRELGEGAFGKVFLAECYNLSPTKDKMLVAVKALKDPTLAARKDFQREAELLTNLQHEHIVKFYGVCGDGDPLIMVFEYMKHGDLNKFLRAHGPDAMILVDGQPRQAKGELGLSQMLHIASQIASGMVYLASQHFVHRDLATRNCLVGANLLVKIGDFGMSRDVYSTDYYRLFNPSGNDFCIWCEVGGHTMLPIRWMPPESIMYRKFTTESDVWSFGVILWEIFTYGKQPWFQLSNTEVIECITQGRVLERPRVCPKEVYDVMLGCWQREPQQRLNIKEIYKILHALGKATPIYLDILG

Row | pIC50 (TRKC) | SMILES | pIC50 (BaF3-CD74-NTRK1-G595R) | pIC50 (BaF3-CD74-NTRK1-G667A) | pIC50 (BaF3-CD74-NTRK1-V573M) | pIC50 (BaF3-ETV6-NTRK3-G696C) | pIC50 (BaF3-ETV6-NTRK3-V601M) | pIC50 (BaF3-ETV6-NTRK2-F633L) | pIC50 (BaF3-ETV6-NTRK2-V617M) | other results
1 | 7.00 to 8.00 | Cc1c(C#Cc2cnc3ccc(N4CCC(O)CC4)nn23)cccc1C(=O)Nc1cc(Cl)cc(C(F)(F)F)c1 [XS3-55, N-(3-CHLORO-5-(TRIFLUOROMETHYL)PHENYL)-3-((6-(4-HYDROXYPIPERIDIN-1-YL)IMIDAZO[1,2-B]PYRIDAZINE-3-YL)ETHYNYL)-2-METHYLBENZAMIDE] | < 6.00 | > 8.00 | 7.00 to 8.00 | > 8.00 | > 8.00 | – | – | AUC(0-inf) [1, 3]: 549 µg·h/mL; AUC(0-t) [1, 3]: 358 µg·h/mL; Cmax [1, 3]: 46100 ng/mL; Tmax [1, 3]: 0.08 h; half-life [1, 3]: 16.1 h; clearance ([1]; Sprague-Dawley (SD), rat, plasma, intravenous injection, 2.0 mg/kg, read-out: Clearance rate (converted)): 3.65 mL/h/kg; AUC(0-inf) [1, 4]: 878 µg·h/mL; AUC(0-t) [1, 4]: 561 µg·h/mL; Cmax [1, 4]: 44100 ng/mL; Tmax [1, 4]: 4 h; half-life [1, 4]: 15.2 h; BA ([1]; oral 10.0 mg/kg vs intravenous 2.0 mg/kg): 31.32%; TGI ([2]; 6.25 mg/kg/day oral): 50.9%; TGI ([2]; 12.5 mg/kg/day oral): 76.3%; TGI ([2]; 25 mg/kg/day oral): 89.2%; TGI ([2]; 50 mg/kg/day oral): 91.6%; tumor size ([2]; after 2 days of treatment at the lowest dose of 6.25 mg/kg, oral): Significant reductions in tumor size; pIC50 (VEGFR2): 6.08
2 | > 8.00 | Cc1c(C#Cc2cnc3ccc(N4CCOCC4)nn23)cccc1C(=O)Nc1cc(CN2CCN(C)CC2)cc(C(F)(F)F)c1 [XS3-68, 2-METHYL-N-(3-((4-METHYLPIPERAZIN-1-YL)METHYL)-5-(TRIFLUOROMETHYL)PHENYL)-3-((6-METHYLENE) LINOIMIDAZO[1,2-B]PYRIDAZIN-3-YL)ETHYNYL)BENZAMIDE] | 6.00 to 7.00 | > 8.00 | 7.00 to 8.00 | > 8.00 | > 8.00 | 6.00 to 7.00 | > 8.00 | –
3 | > 8.00 | Cc1c(C#Cc2cnc3ccc(N4CCC(O)CC4)nn23)cccc1C(=O)Nc1cc(CN2CCN(C)CC2)cc(C(F)(F)F)c1 [XS3-81, 3-((6-(4-HYDROXYPIPERIDIN-1-YL)IMIDAZO[1,2-B]PYRIDAZIN-3-YL)ETHYNYL)-2-METHYL-N-(3-(((4-METHYLPIPERAZIN-1-YL)METHYL)-5-(TRIFLUOROMETHYL)PHENYL)BENZAMIDE] | 6.00 to 7.00 | > 8.00 | > 8.00 | > 8.00 | > 8.00 | 6.00 to 7.00 | > 8.00 | –
4 | > 8.00 | Cc1cn(-c2cc(NC(=O)c3cccc(C#Cc4cnc5ccc(N6CCC(O)CC6)nn45)c3C)cc(C(F)(F)F)c2)cn1 [XS3-87, 3-((6-(4-HYDROXYPIPERIDIN-1-YL)IMIDAZO[1,2-B]PYRIDAZIN-3-YL)ETHYNYL)-2-METHYL-N-(3-(4-METHYL-1H-IMIDAZOL-1-YL)-5-(TRIFLUOROMETHYL)PHENYL)BENZAMIDE] | 6.00 to 7.00 | > 8.00 | > 8.00 | > 8.00 | > 8.00 | 7.00 to 8.00 | > 8.00 | –
